In one experiment the target is Pim-1 (Homo sapiens (Human), UniProt P11309). In words: Pim-Mn enzyme assay (HTRF, 384-well), Pim-1. Particulars: Pim-1 enzyme 5 pM, ATP 1.5 μM, BAD (S112) 0.5 μM, HTRF, 22-point curve; read-out: Pim-1-Mn IC50 IP. The format is biochemical. Background: Time-resolved FRET reads energy transfer from a long-lived donor to a nearby acceptor.
The next experiment deals with Pim-2 (Homo sapiens (Human), UniProt Q9P1W9). In words: Pim-Mn enzyme assay (HTRF, 384-well), Pim-2. The format is biochemical. The following applies: Pim-2 enzyme 0.5 pM, ATP 1.5 μM, BAD (S112) 0.5 μM, HTRF, 22-point curve; read-out: Pim-2-Mn IC50 IP.
Pim-2, sequence (Q9P1W9 whole entry): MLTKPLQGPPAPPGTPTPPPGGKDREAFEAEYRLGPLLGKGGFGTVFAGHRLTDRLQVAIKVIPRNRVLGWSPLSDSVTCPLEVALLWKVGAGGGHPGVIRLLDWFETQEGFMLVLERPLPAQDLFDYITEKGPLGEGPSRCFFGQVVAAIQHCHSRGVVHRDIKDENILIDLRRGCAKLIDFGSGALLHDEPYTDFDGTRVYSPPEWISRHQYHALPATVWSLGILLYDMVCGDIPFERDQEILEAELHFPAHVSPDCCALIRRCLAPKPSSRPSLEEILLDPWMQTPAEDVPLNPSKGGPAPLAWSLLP

SMILES strings stand for the structures.

Pim-1, sequence (P11309 whole entry): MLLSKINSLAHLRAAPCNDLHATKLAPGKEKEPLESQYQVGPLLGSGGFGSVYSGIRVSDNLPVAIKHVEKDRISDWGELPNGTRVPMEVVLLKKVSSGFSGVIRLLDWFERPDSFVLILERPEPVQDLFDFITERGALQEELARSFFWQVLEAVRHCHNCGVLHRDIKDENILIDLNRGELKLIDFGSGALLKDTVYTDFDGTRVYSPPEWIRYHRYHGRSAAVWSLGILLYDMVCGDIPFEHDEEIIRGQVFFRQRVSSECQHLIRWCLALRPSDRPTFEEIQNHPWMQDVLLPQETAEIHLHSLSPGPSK

In general, IC50 refers to the concentration at which inhibition is half-maximal. Turning to `Cc1nc2cccc(-c3cc4c([nH]3)[C@@H](C)NC4=O)c2nc1N[C@H]1CCC[C@@H](NS(C)(=O)=O)C1` [Example 489, N-((1R,3S)-3-((3-methyl-8-((6R)-6-methyl-4-oxo-1,4,5,6-tetrahydropyrrolo[3,4-b]pyrrol-2-yl)-2-quinoxalinyl)amino)cyclohexyl)methanesulfonamide], the IC50 was determined as 4 nM on Pim-1 and 2 nM on Pim-2.

For `CC(C)Nc1nc2c(-c3cc4c([nH]3)[C@@H](C)NC4=O)c(F)ccc2c(=O)n1C1CC1` [Example 490, (R)-3-cyclopropyl-7-fluoro-2-(isopropylamino)-8-(6-methyl-4-oxo-1,4,5,6-tetrahydropyrrolo[3,4-b]pyrrol-2-yl)quinazolin-4(3H)-one], the half-maximal inhibitory concentration (IC50) on Pim-1 amounted to 0.1 nM; on Pim-2, 0.2 nM.

With `Cc1nc2cccc(-c3cc4c([nH]3)[C@@H](C)NC4=O)c2nc1N[C@H]1CCC[C@@H](NC(=O)[C@@H](CO)NC(=O)OC(C)(C)C)C1` [Example 491, tert-butyl((1R)-1-(hydroxymethyl)-2-(((1R,3S)-3-((3-methyl-8-((6R)-6-methyl-4-oxo-1,4,5,6-tetrahydropyrrolo[3,4-b]pyrrol-2-yl)-2-quinoxalinyl)amino)cyclohexyl)amino)-2-oxoethyl)carbamate], the IC50 came to 20 nM on Pim-1 and 10 nM on Pim-2.

Consider `C[C@H]1NC(=O)c2cc(-c3c(F)ccc4c(=O)n(C5CC5)c(NC5(C)CC5)nc34)[nH]c21` [Example 495, (R)-3-cyclopropyl-7-fluoro-8-(6-methyl-4-oxo-1,4,5,6-tetrahydropyrrolo[3,4-b]pyrrol-2-yl)-2-((1-methylcyclopropyl)amino)quinazolin-4(3H)-one], for which the IC50 on Pim-1 was 0.046 nM; at Pim-2, 0.06 nM.

For `C[C@H]1NC(=O)c2cc(-c3cccc4c(=O)n(C5CC5)c(NC5(C)CCC5)nc34)[nH]c21` [Example 496, (R)-3-cyclopropyl-8-(6-methyl-4-oxo-1,4,5,6-tetrahydropyrrolo[3,4-b]pyrrol-2-yl)-2-((1-methylcyclobutyl)amino)quinazolin-4(3H)-one], the IC50 on Pim-1 and at Pim-2 was 0.2 nM each time.

`Cc1nc2cccc(-c3cc4c([nH]3)[C@@H](C)NC4=O)c2nc1N[C@H]1CCC[C@@H](NC(=O)[C@H](N)CO)C1` [Example 497, N-((1R,3S)-3-((3-methyl-8-((6R)-6-methyl-4-oxo-1,4,5,6-tetrahydropyrrolo[3,4-b]pyrrol-2-yl)-2-quinoxalinyl)amino)cyclohexyl)-D-serinamide]: the IC50 at Pim-1 amounted to 0.28 nM; on Pim-2, 0.16 nM.

`C[C@H]1NC(=O)c2cc(-c3cccc4cnc(NC5(C)CC5)nc34)[nH]c21` [Example 499, (6R)-6-methyl-2-(2-((1-methylcyclopropyl)amino)-8-quinazolinyl)-5,6-dihydropyrrolo[3,4-b]pyrrol-4(1H)-one]: the IC50 at Pim-1 came to 1 nM; on Pim-2 it was 1.6 nM.

With `C[C@H]1NC(=O)c2cc(-c3cccc4c(=O)n(CCCO)c(NC(C)(C)C)nc34)[nH]c21` [Example 500, 2-(tert-butylamino)-3-(3-hydroxypropyl)-8-((6R)-6-methyl-4-oxo-1,4,5,6-tetrahydropyrrolo[3,4-b]pyrrol-2-yl)-4(3H)-quinazolinone], the half-maximal inhibitory concentration (IC50) at Pim-1 turned out to be 0.12 nM; at Pim-2 it was 0.11 nM.

Consider `C[C@H]1NC(=O)c2cc(-c3cccc4c(=O)n(CC(F)(F)F)c(NC(C)(C)C)nc34)[nH]c21` [Example 501, 2-(tert-butylamino)-8-((6R)-6-methyl-4-oxo-1,4,5,6-tetrahydropyrrolo[3,4-b]pyrrol-2-yl)-3-(2,2,2-trifluoroethyl)-4(3H)-quinazolinone], for which the values for the IC50 at Pim-1 and on Pim-2 were 0.16 nM and 0.19 nM, respectively.

Regarding `Cn1c(NC(C)(C)C)nc2c(-c3cc4c([nH]3)[C@@H](CCN)NC4=O)cccc2c1=O` [Example 504, (R)-8-(6-(2-aminoethyl)-4-oxo-1,4,5,6-tetrahydropyrrolo[3,4-b]pyrrol-2-yl)-2-(tert-butylamino)-3-methylquinazolin-4(3H)-one], the IC50 on Pim-1 turned out to be 0.04 nM; on Pim-2, 0.02 nM.

For the origin of these results see patent publication US9394297B2, “Amides as pim inhibitors” (AMGEN INC., priority 2012, dated 2016).
